These are literature values, as cited in patent US20170165286A1, “COMPOSITIONS AND METHODS FOR TREATING DIABETES AND LIVER DISEASES” (Cempra Pharmaceuticals, Inc., priority 2014, published 2017).

The structures appear in SMILES notation.

For data set [1] the following is noted: reported; cited from earlier work.
For data set [2] the following is noted: reportedly; cited from earlier work.

Regarding `CC[C@H]1OC(=O)[C@H](C)[C@@H](O[C@H]2C[C@@](C)(OC)[C@@H](O)[C@H](C)O2)[C@H](C)[C@@H](O[C@@H]2O[C@H](C)C[C@H](N(C)C)[C@H]2O)[C@](C)(OC)C[C@@H](C)C(=O)[C@H](C)[C@@H](O)[C@]1(C)O` [clarithromycin], in data set [1], the QT effect result is “QT positive”. Besides, the Liver toxicity entry in data set [2] is “toxic to the liver”.
Turning to `CC[C@H]1OC(=O)[C@H](C)C(=O)[C@H](C)[C@@H](O[C@@H]2O[C@H](C)C[C@H](N(C)C)[C@H]2O)[C@](C)(OC)C[C@@H](C)C(=O)[C@H](C)[C@H]2N(CCCCn3cnc(-c4cccnc4)c3)C(=O)O[C@]12C` [telithromycin], the QT effect result in data set [1] is “QT positive”.
`CC[C@H]1OC(=O)[C@H](C)[C@@H](O[C@H]2C[C@@](C)(OC)[C@@H](O)[C@H](C)O2)[C@H](C)[C@@H](O[C@@H]2O[C@H](C)C[C@H](N(C)C)[C@H]2O)[C@](C)(O)C[C@@H](C)CN(C)[C@H](C)[C@@H](O)[C@]1(C)O` [azithromycin]: the QT effect entry in data set [1] was “QT positive”.
